{
  "source": "ChEMBL document CHEMBL5543153",
  "about": "“Discovery of a Potent Dual Son of Sevenless 1 (SOS1) and Epidermal Growth Factor Receptor (EGFR) Inhibitor for the Treatment of Prostate Cancer” (J Med Chem, 2024)",
  "key": {"[1]": {"molecular_target": "T1, Epidermal growth factor receptor (Homo sapiens, UniProt P00533)", "T1 sequence (P00533 whole entry)": "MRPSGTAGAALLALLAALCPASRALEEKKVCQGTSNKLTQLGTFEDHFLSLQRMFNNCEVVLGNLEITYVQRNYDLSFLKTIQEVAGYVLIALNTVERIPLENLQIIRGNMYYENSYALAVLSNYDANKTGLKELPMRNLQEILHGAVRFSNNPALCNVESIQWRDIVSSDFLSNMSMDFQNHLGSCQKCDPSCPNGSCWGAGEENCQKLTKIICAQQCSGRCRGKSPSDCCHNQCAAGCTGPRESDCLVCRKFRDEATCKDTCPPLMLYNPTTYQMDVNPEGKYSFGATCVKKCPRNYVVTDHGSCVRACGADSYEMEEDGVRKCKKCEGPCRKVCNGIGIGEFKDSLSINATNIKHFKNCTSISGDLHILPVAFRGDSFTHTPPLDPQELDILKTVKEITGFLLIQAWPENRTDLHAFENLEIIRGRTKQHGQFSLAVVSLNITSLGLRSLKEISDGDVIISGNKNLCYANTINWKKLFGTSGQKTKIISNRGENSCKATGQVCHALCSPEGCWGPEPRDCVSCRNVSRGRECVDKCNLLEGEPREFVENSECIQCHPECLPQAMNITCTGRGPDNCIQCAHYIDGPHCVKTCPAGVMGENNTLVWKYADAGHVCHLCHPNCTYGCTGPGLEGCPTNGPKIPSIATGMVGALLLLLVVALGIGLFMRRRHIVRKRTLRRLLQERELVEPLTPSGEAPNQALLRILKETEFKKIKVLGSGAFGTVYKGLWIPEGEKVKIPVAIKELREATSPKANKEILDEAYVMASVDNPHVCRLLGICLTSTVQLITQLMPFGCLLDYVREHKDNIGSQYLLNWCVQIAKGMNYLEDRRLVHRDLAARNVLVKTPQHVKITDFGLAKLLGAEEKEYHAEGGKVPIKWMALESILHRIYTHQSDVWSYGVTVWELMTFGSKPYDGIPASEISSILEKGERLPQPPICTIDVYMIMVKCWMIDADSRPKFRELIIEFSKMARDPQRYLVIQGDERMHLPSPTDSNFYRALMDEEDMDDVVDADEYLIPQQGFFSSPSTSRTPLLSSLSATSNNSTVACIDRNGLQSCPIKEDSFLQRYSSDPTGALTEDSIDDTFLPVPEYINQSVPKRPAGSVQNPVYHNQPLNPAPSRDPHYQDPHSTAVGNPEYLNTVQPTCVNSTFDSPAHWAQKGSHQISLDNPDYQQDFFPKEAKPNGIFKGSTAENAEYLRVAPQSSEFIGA", "assay": "Inhibition of EGFR (unknown origin) using ultra ULight GT peptide as substrate at 10 uM incubated for 2 hrs relative to control"}, "HepG2": {"system": "HepG2", "assay": "Antiproliferative activity against human HepG2 cells assessed as inhibition of cell growth incubated for 72 hrs by MTT assay", "type": "functional, cell-based"}, "[2]": {"assay": "Antiproliferative activity against human RWPE-1 cells assessed as inhibition of cell growth incubated for 72 hrs by MTT assay", "type": "toxicity, cell-based"}, "NCI-H358": {"system": "NCI-H358", "assay": "Antiproliferative activity against human NCI-H358 cells harboring KRAS G12C mutant assessed as inhibition of cell growth incubated for 72 hrs by MTT assay", "type": "functional, cell-based", "details": "NCI-H358, 72 h"}, "A-427": {"system": "A-427", "assay": "Antiproliferative activity against human A-427 cells harboring KRAS G12D mutant assessed as inhibition of cell growth incubated for 72 hrs by MTT assay", "type": "functional, cell-based", "details": "A-427, 72 h"}, "PC-3 [3]": {"system": "PC-3", "assay": "Antiproliferative activity against human PC-3 cells transfected with control shRNA assessed as inhibition of cell growth incubated for 72 hrs by MTT assay", "type": "functional, cell-based", "details": "PC-3, 72 h"}, "PC-3 [4]": {"system": "PC-3", "assay": "Antiproliferative activity against human PC-3 cells transfected with SOS1 shRNA assessed as inhibition of cell growth incubated for 72 hrs by MTT assay", "type": "functional, cell-based", "details": "PC-3, 72 h"}, "[5]": {"molecular_target": "T1, Epidermal growth factor receptor", "assay": "Inhibition of EGFR in human PC-3 cells assessed as downregulation of EGF-mediated AKT phosphorylation at 12.5 uM incubated for 15 mins in presence of EGF by Western blotting analysis", "type": "cell-based"}, "[6]": {"molecular_target": "T1, Epidermal growth factor receptor", "assay": "Inhibition of EGFR in human PC-3 cells assessed as downregulation of AKT phosphorylation at 2.5 uM incubated for 15 mins by Western blotting analysis", "type": "cell-based"}, "PC-3 [7]": {"system": "PC-3", "assay": "Induction of apoptosis in human PC-3 cells assessed as viable cells at 12.5 uM by Annexin V-FITC staining based flow cytometry (reference value: 94.9%)", "type": "functional", "details": "read-out: Activity"}, "PC-3 [8]": {"system": "PC-3", "assay": "Induction of apoptosis in human PC-3 cells assessed as late apoptotic cells at 0.5 uM by Annexin V-FITC staining based flow cytometry (reference value: 1.93%)", "type": "functional"}, "PC-3 [9]": {"system": "PC-3", "assay": "Induction of apoptosis in human PC-3 cells assessed as necrotic cells at 0.5 uM by Annexin V-FITC staining based flow cytometry (reference value: 0.48%)", "type": "functional"}, "PC-3 [10]": {"system": "PC-3", "assay": "Induction of apoptosis in human PC-3 cells assessed as necrotic cells at 12.5 uM by Annexin V-FITC staining based flow cytometry (reference value: 0.48%)", "type": "functional"}, "PC-3 [11]": {"system": "PC-3", "assay": "Induction of apoptosis in human PC-3 cells assessed as upregulation of cleaved PARP expression by Western blotting analysis", "type": "functional, cell-based"}, "PC-3 [12]": {"system": "PC-3", "assay": "Inhibition of colony formation in human PC-3 cells incubated for 15 days by crystal violet staining based microscopic analysis", "type": "functional, cell-based", "details": "time 15.0 day"}, "PC-3 [13]": {"system": "PC-3", "assay": "Induction of cell cycle arrest in human PC-3 cells assessed as accumulation of cells at G2 phase at 2.5 uM by PI staining based flow cytometry (reference value: 7.75%)", "type": "functional"}, "PC-3 [14]": {"system": "PC-3", "assay": "Induction of cell cycle arrest in human PC-3 cells assessed as accumulation of cells at G2 phase at 12.5 uM by PI staining based flow cytometry (reference value: 7.75%)", "type": "functional"}, "PC-3 [15]": {"system": "PC-3", "assay": "Induction of cell cycle arrest in human PC-3 cells assessed as accumulation of cells at S phase at 12.5 uM by PI staining based flow cytometry (reference value: 16.58%)", "type": "functional"}, "PC-3 [16]": {"system": "PC-3", "assay": "Induction of cell cycle arrest in human PC-3 cells assessed as downregulation of CDK4 expression by Western blotting analysis", "type": "functional, cell-based"}, "PC-3 [17]": {"system": "PC-3", "assay": "Induction of cell cycle arrest in human PC-3 cells assessed as downregulation of cyclin D1 expression by Western blotting analysis", "type": "functional, cell-based"}, "HUVEC [18]": {"system": "HUVEC", "assay": "Antiangiogenic activity in HUVEC cells assessed as reduction in total branching length at 0.5 to 12.5 uM incubated for 8 hrs by matrigel based microscopic analysis", "type": "functional, cell-based", "details": "Homo sapiens, dose 0.5-12.5 µM"}, "HUVEC [19]": {"system": "HUVEC", "assay": "Antiangiogenic activity in HUVEC cells assessed as reduction in tube length at 0.5 to 12.5 uM incubated for 8 hrs by matrigel based microscopic analysis", "type": "functional, cell-based", "details": "Homo sapiens, dose 0.5-12.5 µM"}, "HUVEC [20]": {"system": "HUVEC", "assay": "Antiangiogenic activity in HUVEC cells assessed as reduction of meshes at 0.5 to 12.5 uM incubated for 8 hrs by matrigel based microscopic analysis", "type": "functional, cell-based", "details": "Homo sapiens, dose 0.5-12.5 µM"}, "HUVEC [21]": {"system": "HUVEC", "assay": "Antiangiogenic activity in HUVEC cells assessed as reduction of node at 0.5 to 12.5 uM incubated for 8 hrs by matrigel based microscopic analysis", "type": "functional, cell-based", "details": "Homo sapiens, dose 0.5-12.5 µM"}, "HUVEC [22]": {"system": "HUVEC", "assay": "Inhibition of cell migration in HUVEC cells assessed as reduction in migration index measured after 48 hrs by wound healing assay", "type": "functional, cell-based", "details": "Homo sapiens"}, "PC-3 [23]": {"system": "PC-3", "assay": "Antitumor activity against human PC-3 cells xenografted in BALB/c mouse assessed as reduction in tumor weight at 5 mg/kg,ip administrated once every 4 days for 24 days", "type": "functional, organism-based", "details": "time 24.0 day"}, "PC-3 [24]": {"system": "PC-3", "assay": "Antitumor activity against human PC-3 cells xenografted in BALB/c mouse assessed as reduction in tumor weight at 20 mg/kg,ip administrated once every 4 days for 24 days", "type": "functional, organism-based", "details": "time 24.0 day"}, "PC-3 [25]": {"system": "PC-3", "assay": "Antitumor activity against human PC-3 cells xenografted in BALB/c mouse assessed as increase in apoptosis in tumor tissue at ip administrated once every 4 days for 24 days by TUNEL staining based immunohistochemical analysis", "type": "functional, organism-based", "details": "time 24.0 day"}, "PC-3 [26]": {"system": "PC-3", "assay": "Antitumor activity against human PC-3 cells xenografted in BALB/c mouse assessed as reduction in number of CD31-positive cells in tumor tissue at ip administrated once every 4 days for 24 days by DAPI staining based immunohistochemical analysis", "type": "functional, organism-based", "details": "time 24.0 day"}, "[27]": {"assay": "Toxicity in BALB/c mouse xenografted with human PC-3 cells assessed as change in body weight at 20 mg/kg,ip administrated once every 4 days for 24 days", "type": "organism-based", "details": "in vivo, 576 h, time 24 day"}, "[28]": {"assay": "Toxicity in BALB/c mouse xenografted with human PC-3 cells assessed as liver pathological change at 5 mg/kg,ip administrated once every 4 days for 24 days by hematoxylin and eosin staining based analysis", "type": "organism-based", "details": "in vivo, 576 h, time 24 day"}, "[29]": {"assay": "Toxicity in BALB/c mouse xenografted with human PC-3 cells assessed as liver pathological change at 20 mg/kg,ip administrated once every 4 days for 24 days by hematoxylin and eosin staining based analysis", "type": "organism-based", "details": "in vivo, 576 h, time 24 day"}, "[30]": {"assay": "Toxicity in BALB/c mouse xenografted with human PC-3 cells assessed as spleen pathological change at 20 mg/kg,ip administrated once every 4 days for 24 days by hematoxylin and eosin staining based analysis", "type": "organism-based", "details": "in vivo, 576 h, time 24 day"}, "[31]": {"assay": "Toxicity in BALB/c mouse xenografted with human PC-3 cells assessed as kidney pathological change at 5 mg/kg,ip administrated once every 4 days for 24 days by hematoxylin and eosin staining based analysis", "type": "organism-based", "details": "in vivo, 576 h, time 24 day"}, "[32]": {"assay": "Toxicity in BALB/c mouse xenografted with human PC-3 cells assessed as change in AST level at 5 mg/kg,ip administrated once every 4 days for 24 days by automatic biochemical analyzer", "type": "organism-based", "details": "in vivo, 576 h, time 24 day"}, "[33]": {"assay": "Toxicity in BALB/c mouse xenografted with human PC-3 cells assessed as change in AST level at 20 mg/kg,ip administrated once every 4 days for 24 days by automatic biochemical analyzer", "type": "organism-based", "details": "in vivo, 576 h, time 24 day"}, "[34]": {"assay": "Toxicity in BALB/c mouse xenografted with human PC-3 cells assessed as change in ALT level at 20 mg/kg,ip administrated once every 4 days for 24 days by automatic biochemical analyzer", "type": "organism-based", "details": "in vivo, 576 h, time 24 day"}},
  "note": "Calls of active or inactive are those of the source. No cut-off for these calls is given here.",
  "data": [
    {"molecule": "COc1cc2ncnc(N[C@H](C)c3cccc(F)c3)c2cc1OC1CCOCC1", "values": [
      {"measurement": "inhibition", "setting": "[1]", "value": 100, "unit": "%"},
      {"measurement": "Activity", "setting": "HepG2", "value": "Active"},
      {"measurement": "IC50 at 72 h", "setting": "[2]", "value": "> 10000", "unit": "nM"},
      {"measurement": "IC50", "setting": "NCI-H358", "value": 550, "unit": "nM"},
      {"measurement": "IC50", "setting": "A-427", "value": 550, "unit": "nM"},
      {"measurement": "IC50", "setting": "PC-3 [3]", "value": 430, "unit": "nM"},
      {"measurement": "IC50", "setting": "PC-3 [4]", "value": 3920, "unit": "nM"},
      {"measurement": "inhibition", "setting": "[5]", "value": "Active"},
      {"measurement": "inhibition", "setting": "[6]", "value": "Active"},
      {"measurement": "viability at 12.5 µM", "setting": "PC-3 [7]", "value": 74.3, "unit": "%"},
      {"measurement": "Activity", "setting": "PC-3 [8]", "value": 2.74, "unit": "%"},
      {"measurement": "Activity", "setting": "PC-3 [9]", "value": 0.6, "unit": "%"},
      {"measurement": "Activity", "setting": "PC-3 [10]", "value": 0.15, "unit": "%"},
      {"measurement": "Activity", "setting": "PC-3 [11]", "value": "Dose-Dependent Effect"},
      {"measurement": "inhibition", "setting": "PC-3 [12]", "value": "Dose-Dependent Effect"},
      {"measurement": "Activity", "setting": "PC-3 [13]", "value": 12.65, "unit": "%"},
      {"measurement": "Activity", "setting": "PC-3 [14]", "value": 5.95, "unit": "%"},
      {"measurement": "Activity", "setting": "PC-3 [15]", "value": 6.67, "unit": "%"},
      {"measurement": "Activity", "setting": "PC-3 [16]", "value": "Dose-Dependent Effect"},
      {"measurement": "Activity", "setting": "PC-3 [17]", "value": "Dose-Dependent Effect"},
      {"measurement": "Activity", "setting": "HUVEC [18]", "value": "Active"},
      {"measurement": "Activity", "setting": "HUVEC [19]", "value": "Active"},
      {"measurement": "Activity", "setting": "HUVEC [20]", "value": "Active"},
      {"measurement": "Activity", "setting": "HUVEC [21]", "value": "Active"},
      {"measurement": "inhibition", "setting": "HUVEC [22]", "value": "Dose-Dependent Effect"},
      {"measurement": "Activity", "setting": "PC-3 [23]", "value": "Active"},
      {"measurement": "Activity", "setting": "PC-3 [24]", "value": "Active"},
      {"measurement": "Activity", "setting": "PC-3 [25]", "value": "Dose-Dependent Effect"},
      {"measurement": "Activity", "setting": "PC-3 [26]", "value": "Dose-Dependent Effect"},
      {"measurement": "Activity", "setting": "[27]", "value": "Toxic"},
      {"measurement": "Activity", "setting": "[28]", "value": "Toxic"},
      {"measurement": "Activity", "setting": "[29]", "value": "Toxic"},
      {"measurement": "Activity", "setting": "[30]", "value": "Toxic"},
      {"measurement": "Activity", "setting": "[31]", "value": "Toxic"},
      {"measurement": "Activity", "setting": "[32]", "value": "Non-Toxic"},
      {"measurement": "Activity", "setting": "[33]", "value": "Non-Toxic"},
      {"measurement": "Activity", "setting": "[34]", "value": "Non-Toxic"}
    ]}
  ]
}
